Measurements taken from patent US20070270586A1, “NOVEL CRYSTAL OF 7-[2-[(2-AMINOTHIAZOL-4-YL)-2-HYDROXYIMINOACETAMIDE-3-VINYL-3-CEPHEM-4-CARBOXYLIC ACID (SYN ISOMER) AND METHOD FOR PREPARATION THEREOF” (priority 2003, published 2007).

Assay: speed of dissolution in water (10 mg crystal in 50 mL ion exchanged water, 60 rpm, concentration by liquid chromatography)
Format: physicochemical
Settings: for concentration (elution %): 10 mg in 50 mL ion exchanged water, 60 revolutions per minute
Experimental: The anhydrous form of a B type crystal of 7-[2-(2-aminothiazol-4-yl)-2-hydroxyiminoacetamide]-3-vinyl-3-cephem-4-carboxylic acid (syn isomer) obtained in Example 2, and the A type crystal of a compound (I) obtained by deposition of a crystal from a sodium bicarbonate aqueous solution having a pH value of 3.6 and a temperature of 22° C. in Example 1 were used, and the speed of dissolution thereof in water was measured.
Namely, each 10 mg of the above-mentioned A type crystal or B type crystal was put into 50 mL of ion exchanged water and dissolved at a revolution per minute of 60, and the concentrations of each crystal in the solution with the lapse of time were measured by liquid chromatography.

C=CC1=C(C(=O)O)N2C(=O)C(NC(=O)/C(=N\O)c3csc(N)n3)C2SC1 (stereo not drawn) [A type crystal, 7-[2-(2-aminothiazol-4-yl)-2-hydroxyiminoacetamide]-3-vinyl-3-cephem-4-carboxylic acid (syn isomer), reference compound]
concentration (elution %) (lapse time 110 min): 32.7 elution % | concentration (elution %) (lapse time 340 min): 39.7 elution % | concentration (elution %) (lapse time 700 min): 63.7 elution %

C=CC1=C(C(=O)O)N2C(=O)C(NC(=O)/C(=N\O)c3csc(N)n3)C2SC1 (stereo not drawn) [B type crystal, 7-[2-(2-aminothiazol-4-yl)-2-hydroxyiminoacetamide]-3-vinyl-3-cephem-4-carboxylic acid (syn isomer)]
solubility in water compared with conventional A type crystal (conclusion from Table 5): more excellent solubility in water as compared with a conventional A type crystal | concentration (elution %) (lapse time 110 min): 72.8 elution % | concentration (elution %) (lapse time 340 min): 78.4 elution % | concentration (elution %) (lapse time 700 min): 91.1 elution %
